Measured values: US5773628A, “1,2-dioxetane compounds with haloalkoxy groups, methods preparation and use” (Tropix, Inc., priority 1994, dated 1998)
“Also recorded” adds a separate entry of the source.

Assays:
[1] = Base-induced decomposition of hydroxy dioxetanes (first order decay of chemiluminescence); type: physicochemical; conditions: 37° C.; 0.2M 2-methyl-2-amino-1-propanol buffer pH 9.6, 0.88 mM Mg+2, 1.0 mg/mL Enhancer A
Method: (§1) Calf intestinal alkaline phosphatase (AP) was obtained from Biozyme (San Diego, Calif.). Other chemical reagents were obtained from Aldrich Chemical Co. (Milwaukee). Nuclear magnetic resonance (NMR) spectra were obtained on a Varian Gemini 300 spectrometer as solutions in D2 O or CDCl3. Chemiluminescence intensities and rate measurements were performed using either a Turner Designs (Sunnyvale, Calif.) model TD-20e luminometer, a Luminoskan luminometer (Helsinki, Finland), a charge-coupled device camera luminometer constructed in the inventors' laboratory or a luminometer constructed in the inventors' laboratory consisting of an electrically heated sample block, an optical fiber and associated optics for light collection and a photomultiplier tube. Temperature control of samples analyzed in the commercial luminometers was achieved by means of a circulating bath connected to the instrument. Quantitative measurement of light intensities on the Turner luminometer was extended beyond the 10^4 linear range of the detector by a neutral density filter. Data collection from each of the instruments was controlled by an Apple MacIntosh SE/30 computer using the LUMISOFT data reduction program (Lumigen).
The first order decay of chemiluminescence of dioxetanes 1 and 3 in 0.2M 2-methyl-2-amino-1-propanol buffer, pH 9.6 containing 0.88 mM Mg^+2 and 1.0 mg/mL of Enhancer A at 37° C. was measured in a luminometer. The half-life of decay of chemiluminescence (t1/2) of dioxetanes 1 and 3 in 0.2M 2-methyl-2-amino-1-propanol buffer, pH 9.6 containing 0.88 mM Mg^+2 and 1.0 mg/mL of Enhancer A correlate with the times required to reach the maximum light intensity (Imax) in the alkaline phosphatase-triggered decomposition of dioxetanes 2 and 5 in the same buffer solution. The half-life of decay of luminescence of the hydroxy dioxetane homologous to a phosphate-protected dioxetane, therefore, is useful for predicting the grow-in kinetics of light emission for phosphatase triggering of the corresponding phosphate dioxetane. In particular, hydroxy dioxetanes which show a faster t1/2 than dioxetane 1 indicate that the corresponding phosphate dioxetanes are expected to reach Imax more quickly. Other hydroxy dioxetanes (7-9) were then examined under the same conditions.

[2] = tested on: Calf intestinal alkaline phosphatase (AP); test: Chemiluminescent detection of alkaline phosphatase on membrane; type: biochemical; conditions: 1 mg/mL Enhancer A, pH 9.6, 0.33 mM dioxetane, AP 1.1 fmol to 1.1 amol, X-ray film (FIG. 6)
Method: FIG. 6 is a digitally scanned image of an X-ray film from an experiment detecting alkaline phosphatase on a membrane with chemiluminescence. Solutions of alkaline phosphatase in water containing from 1.1×10^-15 to 1.1×10^-18 mol were applied to identical nylon membranes (Micron Separations Inc., Westboro, Mass). The membranes were air dried for 5 min and soaked briefly with a reagent containing 1 mg/mL of Enhancer A in 0.2M 2-amino-2-methyl-1-propanol buffer, pH 9.6 containing 0.88 mM MgCl and either 0.33 mM dioxetane 2 or 0.33 mM dioxetane 5. The membranes were placed between transparent plastic sheets and exposed to X-ray film (Kodak X-OMAT AR, Rochester, N.Y.).
Calf intestinal alkaline phosphatase (AP) was obtained from Biozyme (San Diego, Calif.). Other chemical reagents were obtained from Aldrich Chemical Co. (Milwaukee). Nuclear magnetic resonance (NMR) spectra were obtained on a Varian Gemini 300 spectrometer as solutions in D2 O or CDCl3. […] Temperature control of samples analyzed in the commercial luminometers was achieved by means of a circulating bath connected to the instrument. Quantitative measurement of light intensities on the Turner luminometer was extended beyond the 10^4 linear range of the detector by a neutral density filter. […]

[3] = tested on: Calf intestinal alkaline phosphatase (AP); test: Relative chemiluminescence quantum yields (total light after complete dephosphorylation by AP); type: biochemical
Method: as §1
The relative chemiluminescence quantum yields of dioxetanes 2 and 5 were determined in formulations containing 1 mg/mL or 0.1 mg/mL of Enhancer A in 0.2M 2-amino-2-methyl- 1-propanol buffer, pH 9.6 containing 0.88 mM Mg^+2. A 100 μL aliquot of each reagent was completely dephosphorylated by addition of 3.36×10^-13 mol of alkaline phosphatase. The total amount of light emitted in Relative Light Units (RLU) was integrated until light emission ceased. A similar comparison was also made with 500 μL portions of formulations without any enhancer using 0.75M 2-amino-2-methyl-1-propanol buffer, pH 9.6 containing 0.88 mM Mg^+2.

[4] = tested on: Calf intestinal alkaline phosphatase (AP); test: Effect of enhancer concentration on AP-induced chemiluminescence intensity and kinetics; comparison of optimized solutions; type: biochemical
Method: FIG. 1 is a graph showing the time profiles of the chemiluminescence intensity emitted by 100 μL of a reagent containing dioxetane 5 (4-(2,2,2-trifluoroethoxy)-4-(3-phosphoryloxyphenyl)spiro[1,2-dioxetane-3,2'-tricyclo-[3.3.1.1^3,7 ]decane] disodium salt) and various amounts of an enhancer triggered at 37° C. by addition of 1.12×10^-17 mol of alkaline phosphatase (AP). The reagent consists of a 0.33 mM solution of the dioxetane 5 in 0.2M 2-amino-2-methyl-1-propanol buffer, pH 9.6 containing 0.1, 0.25, 0.5 or 1 mg/mL of 1-(tri-n-octylphosphoniummethyl)-4-(tri-n-butyl-phosphoniummethyl)benzene dichloride (Enhancer A).
FIG. 2 is a graph showing a comparison of the time profile of the chemiluminescence intensity emitted by 100 μL of a reagent containing dioxetane 5 and various amounts of an enhancer triggered at 37° C. by addition of 1.12×10^-17 mol of AP. The reagents consist of a 0.33 mM solution of dioxetane 5 in 0.2M 2-amino-2-methyl-1-propanol buffer, pH 9.6 containing 0.01, 0.025, 0.1 or 0.5 mg/mL of polyvinylbenzyltributylphosphonium chloride co-polyvinylbenzyltri-octylphosphonium chloride (containing a 3:1 ratio of tributyl:trioctyl groups), Enhancer B, the preparation of which is described in European Patent Application 561,033 published Sep. 22, 1993.
FIG. 3 is a graph showing a comparison of the time profile of the chemiluminescence intensity emitted by 100 μL of enhanced reagents containing either dioxetane 2 (LUMIGEN PPD, Lumigen, Inc., Southfield, Mich.) or 5 triggered at 37° C. by addition of 1.12×10^-17 mol of AP. The reagents consist of 1) a 0.33 mM solution of dioxetane 2 in 0.2M 2-amino-2-methyl-1-propanol buffer, pH 9.6 containing 1.0 mg/mL of the enhancer 1-(tri-n-octylphosphoniummethyl)-4-(tri-n-butylphosphoniummethyl) benzene dichloride, and 2) a 0.33 mM solution of dioxetane 5 in 0.2M 2-amino-2-methyl-1-propanol buffer, pH 9.6 containing 0.1 mg/mL of the same enhancer.
FIG. 4 is a graph showing a comparison of the time profile of the chemiluminescence intensity emitted by 100 μL of another pair of enhanced reagents containing either dioxetane 2 or 5 triggered at 37° C. by addition of 1.12×10^-17 mol of AP. The reagents consist of 1) a 0.33 mM solution of dioxetane 2 in 0.2M 2-amino-2-methyl-1-propanol buffer, pH 9.6 containing 0.5 mg/mL of Enhancer B and 2) a 0.33 mM solution of dioxetane 5 in 0.2M 2-amino-2-methyl-1-propanol buffer, pH 9.6 containing 0.25 mg/mL of the same enhancer.
as §1
A concentration dependence study was conducted in an effort to find the optimum amount of enhancer A to use in the alkaline phosphatase-induced chemiluminescent reaction of dioxetane 5. Solutions of dioxetane 5 in 0.2M 2-methyl-2-amino-1-propanol buffer, pH 9.6 containing 0.88 mM Mg^+2 and 1, 0.5, 0.25 or 0.1 mg/mL of Enhancer A were prepared. […]

[5] = tested on: Calf intestinal alkaline phosphatase (AP); test: Kinetic profile of alkaline phosphatase-triggered chemiluminescence (time to 95% of maximum intensity); type: biochemical; conditions: for Time to Reach 95% of Maximum Light Intensity from Alkaline Phosphatase-Triggering: 37° C.
Method: as §1
The improvement in detection speed afforded by compositions containing the phosphate dioxetane 5 is shown in Table 2 through a comparison with dioxetane 2 of the times to reach 95% of the maximum chemiluminescence intensities produced by reaction with AP. Three different reagent compositions containing either dioxetane 2, 4-methoxy-4-(3-phosphoryloxy-phenyl)spiro[1,2-dioxetane-3,2'-tricyclo-[3.3.1.1^3,7 ]decane], disodium salt, (LUMIGEN PPD, Lumigen, Inc.) or 5 were reacted at 37° C. with AP. Composition A consists of 0.33 mM dioxetane in 0.2M 2-methyl-2-amino-1-propanol buffer (pH 9.6) containing 1.0 mg/mL 1-(tri-n-octylphosphoniummethyl)-4-(tri-n-butylphosphonium-methyl) benzene dichloride (Enhancer A); 100 μL portions were reacted with 3.36×10^-16 mol of enzyme. Composition B consists of 0.33 mM dioxetane in 0.2M 2-methyl-2-amino-1-propanol buffer (pH 9.6) containing 0.5 mg/mL of polyvinylbenzyl-tributylphosphon ium chloride co-polyvinylbenzyltrioctyl-phosphonium chloride (containing a 3:1 ratio of tributyl:trioctyl groups) the preparation of which is described in European Patent Application 561,033 published Sep. 22, 1993 (Enhancer B); 100 μL portions were reacted with 3.36×10^-16 mol of enzyme. Composition C consists of 0.33 mM dioxetane in 0.2M 2-methyl-2-amino-1-propanol buffer (pH 9.6); 500 μL portions were reacted with 1.12×10^-15 mol of enzyme.

[6] = Enhancer A 1 mg/mL, 100 μL, 0.2M buffer pH 9.6, 3.36×10^-13 mol AP
[7] = No enhancer, 500 μL, 0.75M 2-amino-2-methyl-1-propanol buffer pH 9.6, 0.88 mM Mg+2
[8] = Composition A: 0.33 mM dioxetane, 0.2M 2-methyl-2-amino-1-propanol buffer pH 9.6, 1.0 mg/mL Enhancer A, 100 μL, 3.36×10^-16 mol AP
[9] = Composition B: 0.33 mM dioxetane, buffer pH 9.6, 0.5 mg/mL Enhancer B, 100 μL, 3.36×10^-16 mol AP
[10] = Composition C: 0.33 mM dioxetane, buffer pH 9.6, no enhancer, 500 μL, 1.12×10^-15 mol AP

SMILES	t1/2 of decay of chemiluminescence [1]	Total Light Intensity [3, 6]	Total Light Intensity [3, 7]	Time to Reach 95% of Maximum Light Intensity from Alkaline Phosphatase-Triggering [5, 8]	Time to Reach 95% of Maximum Light Intensity from Alkaline Phosphatase-Triggering [5, 9]	Time to Reach 95% of Maximum Light Intensity from Alkaline Phosphatase-Triggering [5, 10]	other results
Oc1cccc(C2(OCC(F)(F)F)OOC23C2CC4CC(C2)CC3C4)c1 (stereo not drawn) [Dioxetane 3]	2.0 min						
Oc1cccc(C2(OCC(F)F)OOC23C2CC4CC(C2)CC3C4)c1 (stereo not drawn) [Dioxetane 7]	2.8 min						
O=P(O)(O)Oc1cccc(C2(OCC(F)(F)F)OOC23C2CC4CC(C2)CC3C4)c1 (stereo not drawn) [Dioxetane 5]		1.23 × 10^7 RLU	9.65 × 10^4 RLU	6 min	4.3 min	4.5 min	Image intensity and detection sensitivity on nylon membrane compared to dioxetane 2 [2]: more intense images and better detection sensitivity; Total Light Intensity ([3]; Enhancer A 0.1 mg/mL, 100 μL, 0.2M buffer pH 9.6, 3.36×10^-13 mol AP): 1.01 × 10^7 RLU; Total light produced compared to dioxetane 2 ([3]; with or without Enhancer A): produces more light than dioxetane 2; Chemiluminescence intensity and time profile compared to dioxetane 2 (1 mg/mL Enhancer A) ([4]; 0.33 mM dioxetane 5 with 0.1 mg/mL Enhancer A, 37° C., 1.12×10^-17 mol AP (FIG. 3)): reaches a significantly higher maximum intensity and reaches a plateau much more rapidly; also recorded: more intense chemiluminescence under these conditions but also a shorter delay until the maximum intensity is reached; Chemiluminescence intensity and time profile compared to dioxetane 2 (0.5 mg/mL Enhancer B) ([4]; 0.33 mM dioxetane 5 with 0.25 mg/mL Enhancer B, 37° C., 1.12×10^-17 mol AP (FIG. 4)): reaches a higher light intensity in the first 15 minutes; also recorded: a higher light intensity within the first 15 min; Plateau light intensity and rise time vs. amount of Enhancer A ([4]; Enhancer A 1, 0.5, 0.25 or 0.1 mg/mL, pH 9.6, 37° C., 1.12×10^-17 mol AP (FIG. 1)): increasingly higher plateau light intensities and slower rise times as the amount of enhancer is reduced; Rise time vs. amount of Enhancer B ([4]; Enhancer B 0.5 to 0.01 mg/mL, pH 9.6, 37° C., 1.12×10^-17 mol AP (FIG. 2)): slower rise times as the amount of enhancer is reduced from 0.5 to 0.01 mg/mL; Plateau light intensity compared to dioxetane 2 ([5]; Composition A): higher plateau light intensity
COC1(c2cccc(OP(=O)(O)O)c2)OOC12C1CC3CC(C1)CC2C3 (stereo not drawn) [Dioxetane 2]		9.24 × 10^6 RLU	4.41 × 10^4 RLU	32 min	37 min	6 min	Rise time to maximum light intensity ([4]; Enhancer B reduced from 3 mg/mL to 0.1 mg/mL): essentially constant at an hour or more; Rise time to maximum light intensity ([4]; all concentrations of Enhancer A from 0.1 mg/mL to 3 mg/mL): an hour or more
Oc1cccc(C2(OCCF)OOC23C2CC4CC(C2)CC3C4)c1 (stereo not drawn) [Dioxetane 8]	6.1 min						
COC1(c2cccc(O)c2)OOC12C1CC3CC(C1)CC2C3 (stereo not drawn) [Dioxetane 1]	15.9 min						
